Data taken from US20240217961A1 (MONOPTEROS THERAPEUTICS, INC., priority 2021, published 2024).
In brackets after ≈: the same amount, converted by molar mass. Read-outs that look alike come from different tables or passages of the source.

How the values were obtained:
[1] = Approximate solubility of free form in solvents at 25° C. (manual dilution, visual observation); type: physicochemical; conditions: thermodynamic from solid, read-out: Solubility (mg/mL) at 25° C.
Method: The experiment was conducted by manual dilution combined with visual observation at 25° C. The total volumes of solvents added were recorded.

pKa of free form (UV) = type: physicochemical
human liver microsomes = experiment: CYP phenotyping, human liver microsomes with or without specific chemical inhibitors; type: in vitro ADME; conditions: for Inhibition % / % Remaining at 60 min: human liver microsomes; for % Remaining at 60 min: mean ± SD, n = 3
Method: Human liver microsomes with or without specific inhibitors: By using human liver microsomes with chemical inhibitor, compared to without chemical inhibitor, the incubation was carried out at a concentration of 1 µM with samples taken 0, 15, 30, 45 and 60 min, and analyzed by UPLC-MS/MS to quantitate the concentration of parent remaining. The % remaining was calculated.

human CYP3A5 = human CYP3A5 (Homo sapiens, UniProt P20815); experiment: CYP phenotyping, recombinant CYP enzyme incubation; type: in vitro ADME
Method: (§1) These incubations were carried out at a concentration of 1 µM and contained 50 pmol/ml of CYP protein. Samples were taken at 0, 5, 10, 15, 20 and 30 minutes. The CLint and t1/2 were calculated from the data.

CYP2C19 = CYP2C19 (Homo sapiens, UniProt P33261); experiment: CYP phenotyping, recombinant CYP enzyme incubation; type: in vitro ADME
Method: as §1

Chain of CYP2C19 (P33261 whole entry): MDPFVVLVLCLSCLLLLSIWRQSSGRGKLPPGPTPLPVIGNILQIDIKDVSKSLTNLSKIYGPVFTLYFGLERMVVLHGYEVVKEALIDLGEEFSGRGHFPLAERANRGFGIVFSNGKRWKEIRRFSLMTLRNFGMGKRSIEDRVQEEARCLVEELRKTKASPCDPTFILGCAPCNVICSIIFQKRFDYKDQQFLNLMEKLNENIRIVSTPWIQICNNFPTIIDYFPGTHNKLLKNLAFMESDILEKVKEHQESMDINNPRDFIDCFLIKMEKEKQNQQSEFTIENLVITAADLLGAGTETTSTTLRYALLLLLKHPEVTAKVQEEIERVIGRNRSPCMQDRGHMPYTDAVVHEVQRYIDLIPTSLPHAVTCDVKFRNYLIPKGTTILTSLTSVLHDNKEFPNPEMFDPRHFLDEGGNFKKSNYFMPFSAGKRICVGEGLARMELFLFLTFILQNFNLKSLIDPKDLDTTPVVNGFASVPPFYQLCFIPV
Chain of human CYP3A5 (P20815 whole entry): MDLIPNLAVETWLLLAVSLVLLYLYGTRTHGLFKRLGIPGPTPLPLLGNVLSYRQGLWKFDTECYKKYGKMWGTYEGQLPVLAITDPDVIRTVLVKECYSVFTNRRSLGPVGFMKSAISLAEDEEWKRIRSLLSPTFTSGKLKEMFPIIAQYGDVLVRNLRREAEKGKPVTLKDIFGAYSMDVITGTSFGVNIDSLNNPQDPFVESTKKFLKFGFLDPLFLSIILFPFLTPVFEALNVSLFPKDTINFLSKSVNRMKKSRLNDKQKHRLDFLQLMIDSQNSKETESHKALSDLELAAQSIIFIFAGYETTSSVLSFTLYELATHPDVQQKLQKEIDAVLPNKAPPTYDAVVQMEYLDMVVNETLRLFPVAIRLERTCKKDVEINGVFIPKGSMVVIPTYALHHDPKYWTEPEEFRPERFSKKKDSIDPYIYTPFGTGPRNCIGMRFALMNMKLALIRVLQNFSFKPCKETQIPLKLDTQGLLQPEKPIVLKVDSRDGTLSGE

For `CN1CCC[C@H](CN2c3ccccc3Sc3ccccc32)C1` [(S)-mepazine, (S)-10-((1-methylpiperidin-3-yl)methyl)-10H-phenothiazine], the solubility ([1]; 1,4-dioxane, organic solvent or mixture) was > 100 mg/mL, the solubility ([1]; 2-propanol, organic solvent or mixture) was 33.3 to 50 mg/mL (≈ 107 to 161 mM) and the solubility ([1]; DMF, organic solvent or mixture) was > 100 mg/mL. For the same compound, the solubility ([1]; acetone, organic solvent or mixture) was > 100 mg/mL, the solubility ([1]; acetonitrile, organic solvent or mixture) was 25 to 33.3 mg/mL (≈ 80.5 to 107 mM) and the solubility ([1]; dichloromethane, organic solvent or mixture) was > 100 mg/mL. The solubility ([1]; ethanol, organic solvent or mixture) was > 100 mg/mL, the solubility ([1]; ethyl acetate, organic solvent or mixture) was 50 to 100 mg/mL (≈ 161 to 322 mM) and the solubility ([1]; heptane, organic solvent or mixture) was 10 to 14.3 mg/mL (≈ 32.2 to 46.1 mM). The solubility ([1]; isopropyl acetate, organic solvent or mixture) was 50 to 100 mg/mL (≈ 161 to 322 mM), the solubility ([1]; methanol, organic solvent or mixture) was > 100 mg/mL and the solubility ([1]; methyl ethyl ketone, organic solvent or mixture) was > 100 mg/mL. The solubility ([1]; t-butyl methyl ether, organic solvent or mixture) was 25 to 33.3 mg/mL (≈ 80.5 to 107 mM), the solubility ([1]; tetrahydrofuran, organic solvent or mixture) was > 100 mg/mL and the solubility ([1]; toluene, organic solvent or mixture) was > 100 mg/mL. The solubility ([1]; water) was < 2 mg/mL, the pKa (pKa of free form (UV)) was 9.24 and the “inhibition % of (S)-mepazine metabolism” value (human liver microsomes; human liver microsomes with inhibitor of CYP2C8) was < 20%. The Inhibition % (human liver microsomes; CYP1A2 (Furafylline)) was 31.6%, the “% Remaining at 60 min” value (human liver microsomes; CYP1A2 (Furafylline)) was 55.3 ± 4.07% and the Inhibition % (human liver microsomes; CYP2A6 (Tranylcypromine)) was 25.6%. For the same compound, the “% Remaining at 60 min” value (human liver microsomes; CYP2A6 (Tranylcypromine)) was 53.4 ± 2.69%, the Inhibition % (human liver microsomes; CYP2B6 (Ticlopidine)) was 22.8% and the “% Remaining at 60 min” value (human liver microsomes; CYP2B6 (Ticlopidine)) was 52.6 ± 3.79%. The Inhibition % (human liver microsomes; CYP2C8 (Montelukast)) was 19.3%, the “% Remaining at 60 min” value (human liver microsomes; CYP2C8 (Montelukast)) was 50.5 ± 4.24% and the Inhibition % (human liver microsomes; CYP2C9 (Sulfaphenazole)) was 33.9%. The “% Remaining at 60 min” value (human liver microsomes; CYP2C9 (Sulfaphenazole)) was 57.4± 2.68%, the Inhibition % (human liver microsomes; CYP2C19 (N-3-benzylnirvanol)) was 24.3% and the “% Remaining at 60 min” value (human liver microsomes; CYP2C19 (N-3-benzylnirvanol)) was 53.1 ± 1.75%. For the same compound, the Inhibition % (human liver microsomes; CYP2D6 (Quinidine)) was 74.4%, the “% Remaining at 60 min” value (human liver microsomes; CYP2D6 (Quinidine)) was 80.9 ± 3.69% and the Inhibition % (human liver microsomes; CYP3A (Ketoconazole)) was 21.4%. The “% Remaining at 60 min” value (human liver microsomes; CYP3A (Ketoconazole)) was 50.2 ± 4.00%, the Inhibition % (human liver microsomes; Without inhibitor) was 0.00% and the “% Remaining at 60 min” value (human liver microsomes; Without inhibitor) was 44.7 ± 2.57%. The Contribution % (human CYP3A5) was 0.0651%, the contribution % (human CYP3A5) was 0.0651% and the Contribution % (CYP2C19; CYP2C19) was 8.01%. It also gave a contribution % (CYP2C19; CYP2C19) of 8.01%, a half-life at 1 µM (CYP2C19; human, recombinant CYP2C19, 1 µM, 50 pmol/ml of CYP protein, mean ± SD, n = 3) of 25.9 ± 1.68 min and a CLint (CYP2C19; recombinant CYP2C19, 1 µM, 50 pmol/ml of CYP protein, mean ± SD, n = 3) of 0.537 ± 0.0361 μL/min/pmol CYP. The CLint (CYP2C19; recombinant CYP2C19, 1 µM, 50 pmol/ml CYP protein) was 0.537 µL/min/pmol.
